Converted amounts (≈) assume the structure as drawn.
Key:
A. baumannii #2 = test: microbe, parasite or virus in culture; settings: 18 h
Source text: (§1) Staphylococcus aureus ATCC 25923, S. aureus ATCC 29213, P. aeruginosa ATCC 27853, Escherichia coli ATCC 25922 and Salmonella typhimurium ATCC 14028 strains were obtained from the American Type Culture Collection (ATCC, Manassas, VA, USA). Listeria monocytogenes KCTC 3710, Bacillus cereus KCTC 1012, K. pneumoniae KCTC 2208 and A. baumannii KCTC 2508 were obtained from the Korean Collection for Type Cultures (KRIBB, Daejeon, South Korea). Clinical isolates of A. baumannii strains were collected from Eulji University Hospital (Seoul, South Korea).
(§2) Hp1404 and its analog peptides activity against both gram-positive and gram-negative bacterial strains were tested using the broth microdilution method. Briefly, S. aureus (ATCC 25923, ATCC 29213) and B. cereus KCTC 1012 were cultured overnight at 37 °C in tryptic soy broth (TSB). P. aeruginosa ATCC 27853, K. pneumoniae KCTC 2208, A. baumannii KCTC 2508 and S. typhimurium ATCC 14028 were cultured overnight at 37 °C in nutrient broth (NB). E. coli ATCC 25922 was cultured overnight at 37 °C in luria bertani (LB). L. monocytogenes KCTC 3710 was cultured overnight at 37 °C in brain heart infusion (BHI). The cultures were diluted with fresh medium at a density of 2 × 10^5 CFU/mL. Peptides were serially diluted in sodium phosphate buffer (pH 7.2) to a final concentration of 25 μM. In a 96-well plate, 50-μL bacterial aliquots were mixed with 50 μL peptide solution. After incubation at 37 °C for 18 h, the MIC was determined using a plate reader at 600 nm. The experiment was performed in triplicate.

A. baumannii #3 [1] = test: microbe, parasite or virus in culture; settings: 18 h
Source text: as §1, §2

A. baumannii #4 = test: microbe, parasite or virus in culture; settings: 18 h
Source text: as §1, §2

A. baumannii 409081 [2] = test: microbe, parasite or virus in culture
Source text: as §1, §2

A. baumannii 719705 [3] = test: microbe, parasite or virus in culture
Source text: as §1, §2

A. baumannii 907233 = test: microbe, parasite or virus in culture
Source text: as §1, §2

A. baumannii #3 [4] = test: Biofilm inhibition, crystal violet assay; format: cell-based, Acinetobacter baumannii; settings: NB with 0.2% glucose, 24 h, 37 °C, 595 nm, highest concentration 25 μM
Method: (§3) Acinetobacter baumannii KCTC 2508, #3, #4, 409081 and 719705 were incubated overnight at 37°C to mid-log phase in NB medium. Bacterial cells (5 × 10^5 CFU/mL) were suspended in NB containing 0.2% glucose. A final concentration of 25 μM of peptides and antibiotics (meropenem and polymyxin B) was prepared with the bacterial suspensions in 96-well tissue culture plates and incubated at 37 °C for 24 h. The culture media was carefully removed, and biofilms were fixed with 100% methanol for 15 min and then stained with 0.1% crystal violet for 1 h and rinsed three times with distilled water. After air-drying, the biofilm mass was dissolved in 100 μL of 95% ethanol and measured at 595 nm using a microplate reader.

A. baumannii 409081 [5] = test: Biofilm inhibition, crystal violet assay; format: cell-based, Acinetobacter baumannii; settings: NB with 0.2% glucose, 24 h, 37 °C, 595 nm, highest concentration 25 μM
Method: as §3

A. baumannii 719705 [6] = test: Biofilm inhibition, crystal violet assay; format: cell-based, Acinetobacter baumannii; settings: NB with 0.2% glucose, 24 h, 37 °C, 595 nm, highest concentration 25 μM
Method: as §3

A. baumannii KCTC 2508 = test: Biofilm inhibition, crystal violet assay; format: cell-based, Acinetobacter baumannii; settings: NB with 0.2% glucose, 24 h, 37 °C, 595 nm, highest concentration 25 μM
Method: as §3

A. baumannii biofilms = test: Live biofilm viability assay, SYTO 9 imaging; format: cell-based, Acinetobacter baumannii; settings: preformed biofilm treated with 50 μM for 24 h; A. baumannii including strains isolated from patients; EVOS FL Auto 2
Method: An A. baumannii biofilm viability assay was performed by staining with Syto9 dye. Acinetobacter baumannii strains were diluted to approximately 5 × 10^5 CFU/mL and incubated for 24 h. Biofilms of A. baumannii strains were washed with PBS and treated with 25 and 50 μM peptides and antibiotics for 24 h. Biofilms were stained with SYTO 9 diluted in PBS and the biofilm was visualized using an EVOS™ FL Auto 2 Imaging System (Thermo Fisher Scientific, Waltham, MA, USA).

## polymyxin B [reference compound]
A. baumannii #2; A. baumannii #2 isolated from patient, broth microdilution, 37 °C, three independent experiments
  MIC: 0.39 µM
A. baumannii #3 [1]; A. baumannii #3 isolated from patient, broth microdilution, 37 °C, three independent experiments
  MIC: 0.78 µM
A. baumannii #4; A. baumannii #4 isolated from patient, broth microdilution, 37 °C, three independent experiments
  MIC: 0.39 µM
A. baumannii 409081 [2]; A. baumannii 409081 isolated from patient, broth microdilution, 37 °C, 18 h, three independent experiments
  MIC: 0.78 µM
A. baumannii 719705 [3]; A. baumannii 719705 isolated from patient, broth microdilution, 37 °C, 18 h, three independent experiments
  MIC: 0.78 µM
A. baumannii 907233; A. baumannii 907233 isolated from patient, broth microdilution, 37 °C, 18 h, three independent experiments
  MIC: 0.78 µM
A. baumannii #3 [4]
  concentration that inhibited biofilm formation: 6.25 µM
A. baumannii 409081 [5]
  concentration that inhibited biofilm formation: 6.25 µM
A. baumannii 719705 [6]
  concentration that inhibited biofilm formation: 6.25 µM
A. baumannii KCTC 2508
  concentration that inhibited biofilm formation: 6.25 µM
A. baumannii biofilms
  biofilm reduction by SYTO 9 fluorescence imaging: did not decrease biofilm formation

## C[C@@H](O)[C@H]1C(=O)N2C(C(=O)O)=C(S[C@@H]3CN[C@H](C(=O)N(C)C)C3)[C@H](C)[C@H]12 [Meropenem, meropenem, reference compound]
A. baumannii #2; Acinetobacter baumannii
  MIC: 100 µM (≈ 38.3 µg/mL)
A. baumannii #3 [1]; Acinetobacter baumannii
  MIC: 50 µM (≈ 19.2 µg/mL)
A. baumannii #4; Acinetobacter baumannii
  MIC: 100 µM (≈ 38.3 µg/mL)
A. baumannii 409081 [2]; Acinetobacter baumannii, 409081, 18 h
  MIC: 200 µM (≈ 76.7 µg/mL)
A. baumannii 719705 [3]; Acinetobacter baumannii, 719705, 18 h
  MIC: 100 µM (≈ 38.3 µg/mL)
A. baumannii 907233; Acinetobacter baumannii, 907233, 18 h
  MIC: 200 µM (≈ 76.7 µg/mL)
A. baumannii #3 [4]
  concentration that inhibited biofilm formation: ≥ 25 µM
A. baumannii 409081 [5]
  concentration that inhibited biofilm formation: ≥ 25 µM
A. baumannii KCTC 2508
  concentration that inhibited biofilm formation: 6.25 µM
A. baumannii biofilms
  biofilm reduction by SYTO 9 fluorescence imaging: did not decrease biofilm formation
